According to patent US20130109734A1 (Metabolex, Inc., priority 2010, published 2013):

Tests used:
C57BL/6J mice = experiment: Intra peritoneal glucose tolerance test (IPGTT); assay type: in vivo; details: Mus musculus, 2 h; C57BL/6J mice fasted overnight, compound 30 mg/kg oral gavage at -30 min, 2 g/kg glucose intra peritoneally, incremental AUC 0-120 min vs vehicle; read-out: % reduction IPGTT at 30 mg/kg
Protocol: 8-10 week old male C57BL/6J mice (Harlan) were maintained on regular chow diet from Harlan (2018 Teklad Global). On the day before the experiment mice were fasted overnight, then randomized into groups (n=10-15) to receive the tested GPR120 agonist at doses ranging from 100 mg/kg or the vehicle (1% CMC, 2% TWEEN 80). Compounds were delivered orally via gavage at 10 mL/kg. Blood glucose levels were measured by glucometer (Ascensia Elite XL, Bayer) at time −30 minutes before administration of compound. Blood glucose was measured again after 30 minutes (at time 0), and then the mice were dosed intra peritoneally with 2 g/kg glucose at 10 mL/kg. Blood glucose measurements were taken 20, 40, 60, 90 and 120 minutes after glucose administration, by glucometer (Ascensia Elite XL, Bayer).
Glucose levels were plotted against time, and the incremental area under the curve (AUC) of the glucose excursion was determined from time 0 using Graphpad Prism 5.01. Outliers were excluded using Tukey's box plot outlier test, and statistical significance of differences in AUC of compound treatment compared to vehicle was determined by non-parametric Kruskal-Wallis test with Dunn's post test.
The compounds were tested at 30 mg/kg and the levels of blood glucose were determined in the presence and absence of the tested compounds. The percentage of glucose reduction is reported. […]

human GPR120 = target: T1, human GPR120 (Homo sapiens, UniProt Q5NUL3); experiment: Intracellular Ca2+ assay in human GPR120 stable cell line (HEK293 co-expressing Gqi5), Flexstation; assay type: cell-based; details: % activity at 5 μM compared to the maximal activity of GW9508 at 6.7 μM (=100%); human GPR120 cells, Ca2+ fluorescence
T1 construct: host or cells: HEK293 cells co-expressing Gqi5
T1 sequence (Q5NUL3 1-361): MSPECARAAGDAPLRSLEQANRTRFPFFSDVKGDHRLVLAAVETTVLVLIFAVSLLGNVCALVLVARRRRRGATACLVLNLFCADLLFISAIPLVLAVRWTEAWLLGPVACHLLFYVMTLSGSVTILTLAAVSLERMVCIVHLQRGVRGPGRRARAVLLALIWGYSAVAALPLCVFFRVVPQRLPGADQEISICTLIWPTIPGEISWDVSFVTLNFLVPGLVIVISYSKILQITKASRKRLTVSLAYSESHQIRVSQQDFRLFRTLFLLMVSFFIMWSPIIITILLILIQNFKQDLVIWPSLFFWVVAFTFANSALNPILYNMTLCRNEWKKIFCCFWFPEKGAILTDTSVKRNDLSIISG
Summary of the method: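 HEK293 cells stably co-expressing Gqi5 and Flag-tagged human GPR120, loaded with Calcium 4 dye in HBSS/HEPES pH 7.4 at 37 °C; compounds at eight concentrations, 0.00001–20 μM, fluorescence (485/525 nm) read 90 s. EC50 from Max−Min change; percent activity relative to GW9508 maximum at 6.7 μM.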

Row | Compound | inhibition in vivo at 30 mg/kg (C57BL/6J mice) [%] | % Activity (GW9508 Reference Compound) (human GPR120) [%]
1 | CC(Cc1ccc(OCc2cc(Cl)cc3c2OC(C)(C)C3)c(F)c1)C(=O)O (centres unmarked) [Example 10, 3-(4-((5-chloro-2,2-dimethyl-2,3-dihydrobenzofuran-7-yl)methoxy)-3-fluorophenyl)-2-methylpropanoic acid] | 30.7 | 106.7955
2 | CC(Cc1ccc(OCc2cc(Cl)cc3c2OC(C)(C)C3)cc1)C(=O)O (centres unmarked) [Example 13] | 31 | 119.0442
3 | CC(C)Oc1ccc(Cl)cc1COc1cc2c(cc1F)C(CC(=O)O)CC2 (centres unmarked) [Example 257, 2-(5-((5-chloro-2-isopropoxybenzyl)oxy)-6-fluoro-2,3-dihydro-1H-inden-1-yl)acetic acid] | – | 124.62
4 | CC(C)Oc1ccc(Cl)cc1COc1ccc2c(c1)CCC2CC(=O)O (centres unmarked) [Example 258, 2-(5-((5-chloro-2-isopropoxybenzyl)oxy)-2,3-dihydro-1H-inden-1-yl)acetic acid] | – | 139.95
5 | CC(C)Oc1ncccc1COc1ccc2c(c1)CCC2CC(=O)O (centres unmarked) [Example 259, 2-(5-((2-isopropoxypyridin-3-yl)methoxy)-2,3-dihydro-1H-inden-1-yl)acetic acid] | – | 118.5
6 | CC(Cc1cc(F)c(OCc2cccc3cn[nH]c23)c(F)c1)C(=O)O (centres unmarked) [Example 260, 3-(4-((1H-indazol-7-yl)methoxy)-3,5-difluorophenyl)-2-methylpropanoic acid] | – | 16.67
7 | Cc1nc2cccc(COc3c(F)cc(CC(C)C(=O)O)cc3F)c2o1 (centres unmarked) [Example 261, 3-(3,5-difluoro-4-((2-methylbenzo[d]oxazol-7-yl)methoxy)phenyl)-2-methylpropanoic acid] | – | 108.78
8 | CC1(C)Cc2cc(F)cc(COc3ccc4c(CC(=O)O)coc4c3)c2O1 [Example 262, 2-(6-((5-fluoro-2,2-dimethyl-2,3-dihydrobenzofuran-7-yl)methoxy)benzofuran-3-yl)acetic acid] | – | 137.39
9 | CC1(C)Cc2cc(F)cc(COc3ccc4c(CC(=O)O)cc(=O)oc4c3)c2O1 [Example 263, 2-(7-((5-fluoro-2,2-dimethyl-2,3-dihydrobenzofuran-7-yl)methoxy)-2-oxo-2H-chromen-4-yl)acetic acid] | – | 5.98
10 | CC(Cc1ccc(OCc2cc(F)cc3c2OC(C)(C)C3)cc1)C(=O)NO (centres unmarked) [Example 264, 3-(4-((5-fluoro-2,2-dimethyl-2,3-dihydrobenzofuran-7-yl)methoxy)phenyl)-N-hydroxy-2-methylpropanamide] | – | 110.24
11 | CC(C)C(CC(=O)O)c1ccc(OCc2cc(Cl)cc3c2OC(C)(C)C3)cc1 (centres unmarked) [Example 266, 3-(4-((5-chloro-2,2-dimethyl-2,3-dihydrobenzofuran-7-yl)methoxy)phenyl)-4-methylpentanoic acid] | – | 42.73
12 | Cc1c(CCC(=O)O)ccc(OCc2cc(Cl)cc3c2CC(C)(C)O3)c1C [Example 267, 3-(4-((6-chloro-2,2-dimethyl-2,3-dihydrobenzofuran-4-yl)methoxy)-2,3-dimethylphenyl)propanoic acid] | – | 140.82
